One series relates to Oryctolagus sp. As to conditions: acute, dermal.
Series [1] has as its system Rattus norvegicus. As to conditions: for LD50 / LC50: acute.
The subject of series [2] is Rattus norvegicus. Conditions: for LEL: uterotrophic, Active; for NOEL: Hershberger, duration: 10 days, gavage.
The mark [3] stands for this setting: reproduction developmental, duration: 39 days, oral, gavage, generation: F0.
Where [4] appears, read: short-term, duration: 28 days, oral, gavage.
Where [5] appears, read: subchronic, duration: 90 days, oral, diet, Wistar.
Where [6] appears, read: short-term, duration: 4 weeks, oral, diet, Sprague-Dawley.

Molecules are shown by their SMILES. Several values for one entry are separate records, joined by “and”; a condition that tells them apart may be missing. Equal values may be shown once.

This is an account of results in EPA's ToxValDB 9.5.

What is called LD50 is the dose expected to kill half of the subjects tested. The term LC50 denotes the concentration lethal to half of the exposed cells or organisms. Low values mean a more lethal substance, high ones a less lethal substance. By NOAEL is commonly meant the highest dose or exposure tested at which no adverse effect was seen. What is called LOAEL is the lowest tested level that showed an adverse finding.

As for `CCCCCCCCCCCCN(C)C` [N,N-Dimethyldodecan-1-amine], the LD50 in the series with Oryctolagus sp. (occlusive, New Zealand) was 5000 mg/kg; in the series on Rattus norvegicus [1] (oral, gavage, Wistar) it was 1220 mg/kg and 790 mg/kg.

As for `OC1CCCCC1` [Cyclohexanol], the LD50 in the series with Oryctolagus sp. (New Zealand) is ≥ 501 mg/kg and ≤ 794 mg/kg; with Rattus norvegicus [1] (oral, gavage, Carworth Wistar), 2060 mg/kg; in the series on Rattus norvegicus [1] (oral, gavage, Sprague-Dawley) it was 1550 mg/kg. Moreover, the LC50 in the series on Rattus norvegicus [1] (Inhalation, Sprague-Dawley) was over 3.63 µg/mL. The no observed adverse effect level (NOAEL) stood at 614 mg/m3 with Rattus norvegicus [1] (developmental, inhalation, Sprague-Dawley); 614 mg/m3 with Rattus norvegicus [1] (reproduction developmental, duration: 10 weeks, inhalation, Sprague-Dawley, generation: F0); 614 mg/m3 with Rattus norvegicus [1] (reproduction developmental, duration: 10 weeks, inhalation, Sprague-Dawley, generation: F1); 614 mg/m3 with Rattus norvegicus [1] (reproduction developmental, duration: 13 weeks, inhalation, Sprague-Dawley).

Take `CCCCCCCCc1ccc(O)cc1` [4-Octylphenol]: the LD50 with Rattus norvegicus [1] (oral, gavage, albino) was 1100 mg/kg and 1200 mg/kg and 1400 mg/kg. For the same compound, the LEL in the series with Rattus norvegicus [2] (duration: 4 days, oral) came to 100 mg/kg-day.

In turn, `COC(=O)Nc1nc2ccccc2[nH]1` [Carbendazim] showed an LD50 in the series with Rattus norvegicus [1] (oral, gavage, Harlan Sprague Dawley) of over 5050 mg/kg. Moreover, in the series on Rattus norvegicus [2] (oral, Wistar, inactive + Negative + Negative + Neither + effects on fertility, reduced testis/epididymal wt and abnormal histo in P0, fertility), the NOEL turned out to be 100 mg/kg-day.

Regarding `O=C(Cl)c1ccccc1` [Benzoyl chloride], the LD50 with Oryctolagus sp. was 790 mg/kg; in the series on Oryctolagus sp. (occlusive, New Zealand), over 2000 mg/kg; with Rattus norvegicus [1] (oral) it was 2460 mg/kg and 1900 mg/kg; with Rattus norvegicus [1] (oral, Spartan) it was 2620 mg/kg; with Rattus norvegicus [1] (oral, gavage, Wistar) it was 2530 mg/kg. For the same compound, the LC50 in the series on Rattus norvegicus [1] (inhalation) was 1.87 µg/mL; with Rattus norvegicus [1] (inhalation, Wistar) it was 1.45 µg/mL and > 1.98 µg/mL and > 2.34 µg/mL.

For the compound `CCCCCCCCCCCCOC(=O)CS(=O)(=O)[O-].[Na+]` [Sodium 2-(dodecyloxy)-2-oxoethane-1-sulphonate], the LD50 with Oryctolagus sp. (occlusive, New Zealand) was over 2000 mg/kg; in the series on Rattus norvegicus [1] (oral, Wistar) it was 1000 mg/kg; in the series on Rattus norvegicus [1] (oral, gavage, Sprague-Dawley) it was over 2000 mg/kg. For the same compound, the NOAEL in the series on Rattus norvegicus [1] (reproduction developmental, duration: 39 days, oral, gavage) amounted to 1000 mg/kg-day; with Rattus norvegicus [1] (setting [3]) it was 200 mg/kg-day; in the series on Rattus norvegicus [1] (setting [4]) it was 200 mg/kg-day. The LOAEL in the series on Rattus norvegicus [1] (setting [3]) was 1000 mg/kg-day; with Rattus norvegicus [1] (setting [4]), 800 mg/kg-day.

As for `CCCCCCC=O` [Heptanal], the LD50 in the series with Oryctolagus sp. was over 5000 mg/kg; with Rattus norvegicus [1] (oral, gavage), over 5000 mg/kg. Besides, in the series with Rattus norvegicus [1] (Inhalation, Sprague-Dawley), the LC50 is over 4.7 µg/mL. Further, the NOAEL was 2050 mg/kg-day with Rattus norvegicus [1] (reproduction developmental, oral, gavage, F, Wistar) and 37 mg/kg-day in the series with Rattus norvegicus [1] (setting [5]). The compound also displayed an LOAEL in the series with Rattus norvegicus [1] (setting [5]) of 150 mg/kg-day.

As to `CCCCC(CC)CN1C(=O)C2C3C=CC(C3)C2C1=O` (stereo unspecified) [Octylbicycloheptenedicarboximide], the NOEL in the series on Rattus norvegicus [2] (oral, Sprague-Dawley, inactive + Negative + Negative + neither + negative) was found to be 700 mg/kg-day.

Take `CCNc1ccccc1` [N-Ethylaniline]: the LD50 in the series with Oryctolagus sp. (New Zealand) is over 2000 mg/kg; in the series with Rattus norvegicus [1] (dermal), 1920 mg/kg; in the series on Rattus norvegicus [1] (oral), 300 mg/kg; with Rattus norvegicus [1] (oral, gavage, Sprague-Dawley), ≥ 332 mg/kg and ≤ 402 mg/kg. Moreover, in the series with Rattus norvegicus [1] (inhalation, Sprague-Dawley), the LC50 is ≥ 1.13 µg/mL and ≤ 1.48 µg/mL.

With `Cl.O=C(c1ccc(OCCN2CCCCC2)cc1)c1c(-c2ccc(O)cc2)sc2cc(O)ccc12` [Raloxifene hydrochloride], the LEL in the series with Rattus norvegicus [2] (duration: 3 days, injection, subcutaneous) was 0.5 mg/kg-day.

In the series on Oryctolagus sp. (New Zealand), `CCCCC(CC)COC(=O)c1c(Br)c(Br)c(Br)c(Br)c1C(=O)OCC(CC)CCCC` (stereo unspecified) [Bis(2-ethylhexyl) tetrabromophthalate] came in with an LD50 of over 3090 mg/kg. For the same compound, the 50% lethal dose (LD50) with Rattus norvegicus [1] (oral, gavage, Crl:CD(SD)) was over 5000 mg/kg. In the series on Rattus norvegicus [1] (setting [6]), this compound returned an LOAEL of 20000 ppm and an NOAEL of 2000 ppm.
